{"source": "patent US8303934B2", "about": "“Methods and compositions of [32P]-labeled adenine nucleotides for the treatment of atherosclerosis, vascular arterial diseases and coronary artery diseases” (priority 2011, dated 2012)", "origin": "cited, not measured here", "tested_on": "established human xenographed tumors", "settings": "established human xenografted tumors in athymic mice; low-level doses"}
{"smiles": "Nc1ncnc2c1ncn2[C@@H]1O[C@H](COP(=O)(O)OP(=O)(O)OP(=O)(O)O)[C@@H](O)[C@H]1O", "note": "[[32P]ATP, [32P]adenosine 5′-triphosphate]", "values": [{"measurement": "activity as an anti-tumor cytotoxic agent", "value": "very active"}]}
